Data on seven molecules can be found in ChEMBL document CHEMBL1201862, “PubChem BioAssay data set” (2004).

A word on the GI50: it is the concentration that inhibits growth by half.

Test systems include 786-0; A549; DU-145; EKVX; HL-60; HT-29; MDA-MB-231; MOLT-4; Malme-3M; NCI-H522; OVCAR-4; PC-3; RPMI-8226; SF-268; SF-295; SF-539; SNB-19; SNB-75; TK-10; U-251.
Assay in all cases: DTP human tumour cell line panel, 48 h

Each structure is given as a SMILES string.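 Results reflect a 48-hour exposure of cells in 96-well plates to compound at five concentrations. GI50: concentration for 50% inhibition of growth.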 The source made the active and inactive calls. Cut-off read from the data, not from the text of the source: active = GI50 up to about 1.1 µM and inactive = higher. Where only a bound is given, the exact number is not on record here.

`CC(C)CNc1nc(N)nc(O)c1NC=O`: the GI50 in the assay with 786-0, with A549, in the assay on DU-145, in the assay with EKVX, in the assay on HL-60 and in the assay with HT-29 was > 100 µM (inactive) throughout. The GI50 with MDA-MB-231, in the assay on MOLT-4, with Malme-3M, with NCI-H522, in the assay on OVCAR-4 and in the assay on PC-3 was > 100 µM (inactive) each time. Further, the GI50 with RPMI-8226, with SF-268, with SF-295, in the assay with SF-539, in the assay with SNB-19 and in the assay on SNB-75 was > 100 µM (inactive) in each case. For the same molecule, the GI50 in the assay with TK-10 and with U-251 was > 100 µM (inactive) in each case.

Turning to `N=C(N)c1ccc(/N=N\c2c(O)ccc3cc4c(/N=N\c5ccc(C(=N)N)cc5)c(O)ccc4cc23)cc1`, the GI50 in the assay on 786-0 is 49 µM (inactive); in the assay on A549, > 100 µM (inactive); in the assay on DU-145, > 100 µM (inactive); in the assay on EKVX it was > 100 µM (inactive); in the assay on HL-60, 25.2 µM (inactive); in the assay with HT-29, 75.9 µM (inactive). Moreover, the GI50 with MDA-MB-231 is 29 µM (inactive); with MOLT-4 it was 37.8 µM (inactive); with Malme-3M, > 100 µM (inactive); in the assay with NCI-H522 it was > 100 µM (inactive); in the assay with OVCAR-4 it was > 100 µM (inactive); with PC-3, > 100 µM (inactive). Further, the GI50 in the assay on RPMI-8226 is 28 µM (inactive); in the assay on SF-268, 95.3 µM (inactive); in the assay with SF-295, 50.8 µM (inactive); with SF-539 it was 94.8 µM (inactive); in the assay on SNB-19, > 100 µM (inactive); with SNB-75, > 100 µM (inactive). The GI50 in the assay with TK-10 is > 100 µM (inactive); in the assay with U-251, 51.1 µM (inactive).

For `N#C/C=C1\C=CC(O)C(O)C1OC1OC(CO)C(O)C(O)C1O` (stereo not given), the GI50 in the assay with 786-0, in the assay with A549, in the assay with DU-145, in the assay with EKVX, in the assay with HL-60 and with HT-29 was > 100 µM (inactive) throughout. Further, the GI50 in the assay on MDA-MB-231, in the assay with MOLT-4, in the assay with Malme-3M, with NCI-H522, in the assay with OVCAR-4 and in the assay on PC-3 was > 100 µM (inactive) in each case. Also, the GI50 with RPMI-8226, in the assay with SF-268, in the assay on SF-295, in the assay on SF-539, with SNB-19 and in the assay with SNB-75 was > 100 µM (inactive) in each case. Besides, the GI50 in the assay on TK-10 and in the assay on U-251 was > 100 µM (inactive) throughout.

For `CSc1nc(Br)nc2c1ncn2C1CC(Oc2ccc(C)cc2)C(COc2ccc(C)cc2)O1` (stereo not given), the GI50 in the assay with 786-0, in the assay with A549, in the assay with DU-145, with EKVX, with HL-60 and in the assay with HT-29 was > 100 µM (inactive) each time. For the same molecule, the GI50 with MDA-MB-231 was 61.2 µM (inactive); in the assay on MOLT-4, > 100 µM (inactive); in the assay with Malme-3M, > 100 µM (inactive); with NCI-H522, > 100 µM (inactive); with OVCAR-4 it was 83 µM (inactive); in the assay with PC-3, > 100 µM (inactive). The GI50 is 93.8 µM (inactive) in the assay with RPMI-8226; > 100 µM (inactive) with SF-268; > 100 µM (inactive) in the assay with SF-295; > 100 µM (inactive) in the assay with SF-539; 22.5 µM (inactive) with SNB-19; 23.3 µM (inactive) in the assay on SNB-75. The GI50 in the assay with TK-10 and in the assay on U-251 was > 100 µM (inactive) throughout.

On to `C[C@H]1[C@H](C)CC[C@]2(C(=O)OC3OC(CO)C(O)C(O)C3O)CC[C@]3(C)C(=CC[C@@H]4[C@@]5(C)C[C@H]6OC(=O)c7cc(O)c(O)c(O)c7-c7c(cc(O)c(O)c7O)C(=O)O[C@@H]6C(CO)(CO)[C@@H]5CC[C@]43C)[C@H]12` (stereo not given in full), for which the GI50 with 786-0 is 19.5 µM (inactive); with A549 it was > 100 µM (inactive); in the assay with DU-145, > 100 µM (inactive); with EKVX, > 100 µM (inactive); with HL-60, 44 µM (inactive); with HT-29, 24.1 µM (inactive). Moreover, the GI50 with MDA-MB-231 was 15.6 µM (inactive); in the assay with MOLT-4, > 41.5 µM (inactive); in the assay on Malme-3M, > 100 µM (inactive); in the assay with NCI-H522 it was 16.6 µM (inactive); with OVCAR-4 it was 27.1 µM (inactive); with PC-3, > 82.6 µM (inactive). The GI50 in the assay with RPMI-8226 was > 100 µM (inactive); with SF-268, > 69.8 µM (inactive); in the assay with SF-295, 40.6 µM (inactive); in the assay on SF-539 it was > 100 µM (inactive); in the assay with SNB-19, 43.7 µM (inactive); with SNB-75 it was > 100 µM (inactive). Moreover, the figures for the GI50 with TK-10 and in the assay with U-251 were > 100 µM (inactive) and 17.7 µM (inactive), respectively.

Consider `CC(=O)Nc1ccc(/C=C2/NC(=S)N(/C=C3\C(=O)Oc4ccccc4C3=O)C2=O)cc1`, for which the GI50 in the assay with 786-0 was 69 µM (inactive); with A549, 58.9 µM (inactive); in the assay on DU-145 it was 94 µM (inactive); with EKVX, > 100 µM (inactive); in the assay on HL-60, 40.5 µM (inactive); in the assay on HT-29, 44.9 µM (inactive). In addition, the GI50 in the assay with MDA-MB-231 is 16.2 µM (inactive); with MOLT-4 it was 48 µM (inactive); with Malme-3M, > 100 µM (inactive); in the assay with NCI-H522 it was 36.7 µM (inactive); with OVCAR-4, 51.1 µM (inactive); with PC-3, 54.5 µM (inactive). Further, the GI50 in the assay with RPMI-8226 was 47.9 µM (inactive); with SF-268 it was 29.4 µM (inactive); in the assay with SF-295, 49.8 µM (inactive); in the assay with SF-539, 96.2 µM (inactive); in the assay on SNB-19, > 100 µM (inactive); with SNB-75, 15.8 µM (inactive). Further, the GI50 with TK-10 is 55.8 µM (inactive); with U-251, 46.3 µM (inactive).

Turning to `CCC1(O)CC(OC2CC(N(C)C)C(OC3CC(O)C(OC4OC(C)C(=O)C=C4N)C(C)O3)C(C)O2)c2c(O)c3c(c(O)c2C1C(=O)OC)C(=O)c1cccc(O)c1C3=O` (stereo not given), the concentration for 50% growth inhibition (GI50) in the assay on 786-0 was 0.0021 µM (active); with A549 it was 0.00356 µM (active); with DU-145, 0.00686 µM (active); in the assay with EKVX, 0.0103 µM (active); in the assay with HL-60 it was 0.00154 µM (active); with HT-29 it was 0.00475 µM (active). Moreover, the GI50 was 0.0583 µM (active) in the assay with MDA-MB-231; 0.00231 µM (active) with MOLT-4; 0.0114 µM (active) with Malme-3M; 0.0121 µM (active) in the assay with NCI-H522; 0.01 µM (active) in the assay on OVCAR-4; 0.00535 µM (active) with PC-3. Besides, the 50% growth inhibitory concentration (GI50) with RPMI-8226 was 0.00314 µM (active); in the assay with SF-268, 0.0925 µM (active); in the assay with SF-295, 0.00134 µM (active); with SF-539, 0.00759 µM (active); in the assay on SNB-19 it was 0.00929 µM (active); in the assay on SNB-75, 0.0311 µM (active). The GI50 in the assay on TK-10 is 0.0168 µM (active); in the assay with U-251, 0.00336 µM (active).
